Data on 25 compounds can be found in ChEMBL document CHEMBL4425185, “Efforts towards the optimization of a bi-aryl class of potent IRAK4 inhibitors” (Bioorg Med Chem Lett, 2016).

In data set [1] the target is T1, Interleukin-1 receptor-associated kinase 4 (Homo sapiens, UniProt Q9NWZ3).
T1 sequence (Q9NWZ3 whole entry): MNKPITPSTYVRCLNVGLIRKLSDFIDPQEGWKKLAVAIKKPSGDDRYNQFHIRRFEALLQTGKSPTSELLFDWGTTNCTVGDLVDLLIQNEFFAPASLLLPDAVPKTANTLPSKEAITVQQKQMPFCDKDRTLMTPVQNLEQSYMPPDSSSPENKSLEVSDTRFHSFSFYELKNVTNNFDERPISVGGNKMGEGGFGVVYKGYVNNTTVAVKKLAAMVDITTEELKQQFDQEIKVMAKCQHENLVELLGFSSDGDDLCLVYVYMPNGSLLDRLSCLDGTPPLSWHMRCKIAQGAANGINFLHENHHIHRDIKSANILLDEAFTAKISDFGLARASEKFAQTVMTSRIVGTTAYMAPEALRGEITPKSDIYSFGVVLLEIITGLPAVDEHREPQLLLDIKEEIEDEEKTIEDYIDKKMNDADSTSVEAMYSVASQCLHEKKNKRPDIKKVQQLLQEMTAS
As to the kind of experiment: Inhibition of human recombinant N-terminal GST-tagged full-length IRAK4 expressed in baculovirus infected Sf9 insect cells using 5FAM-RKRQGSVRRRVH-COOH as substrate in presence of ATP by IMAP fluorescence polarization assay.

Data set [2] in a line: Clearance in rat at 2 mg/kg, iv. The data set is classed as ADME, organism-based. To be noted: in vivo.
The target in data set [3] is T1, Interleukin-1 receptor-associated kinase 4. The experiment in a line: Inhibition of […] IRAK4 in human THP1-XBlue cells assessed as decrease in NF-kappaB level preincubated for 1 hr followed by stimulation with LPS for 4 to 5 hrs measured after 30 mins by spectrophotometric analysis. The format is cell-based.
Data set [4] concerns the target Voltage-gated inwardly rectifying potassium channel KCNH2 (Homo sapiens, UniProt Q12809). As to the kind of experiment: Inhibition of MK499 binding to human ERG.
Data set [5] can be described thus: Apparent permeability in dog MDCK2-MDR1 cells. Conditions: MDCK-MDR1; call rule not given here. The format is ADME, cell-based, Canis lupus familiaris.
The target of data set [6] is T2, Interleukin-1 receptor-associated kinase 4 (Homo sapiens) (UniProt Q9NWZ3).
T2 sequence (whole entry): T1 sequence (Q9NWZ3 whole entry)
As to the kind of experiment: Ratio of IC50 for IRAK4 inhibition in human THP1-XBlue cells to IC50 for inhibition of human IRAK4. The format is cell-based.

A short description of data set [7]: Clearance in rat. The format is ADME. To be noted: in vivo.
Data set [8] is described as follows: Clearance in rat at 1.45 mg/kg, iv. The data set is classed as ADME, organism-based. Conditions: in vivo.
The test system of data set [9] is Cytochrome P450. As to the kind of experiment: Inhibition of CYP450 (unknown origin). The data set is classed as ADME, protein assay. Conditions: human.
The species named for data set [10] is Homo sapiens. As to the kind of experiment: Selectivity for human IRAK4 over human LRRK2.
The species entered for data set [11] is Homo sapiens. The experiment in a line: Selectivity for human IRAK4 over GST-tagged human MINK1.
Data set [12] has as its system MDR1. As to the kind of experiment: Efflux ratio of permeability in dog MDCK2-MDR1 cells. The data set is classed as ADME, cell-based, Canis lupus familiaris. Conditions: MDCK-MDR1.
Data set [13] relates to Cytochrome P450. As to the kind of experiment: Induction of CYP450 (unknown origin). The format is ADME. To be noted: human.
Data set [14] can be described thus: Clearance in rat at 0.15 mg/kg, iv. The format is ADME, organism-based. Conditions: in vivo.

Voltage-gated inwardly rectifying potassium channel KCNH2, sequence (Q12809 whole entry): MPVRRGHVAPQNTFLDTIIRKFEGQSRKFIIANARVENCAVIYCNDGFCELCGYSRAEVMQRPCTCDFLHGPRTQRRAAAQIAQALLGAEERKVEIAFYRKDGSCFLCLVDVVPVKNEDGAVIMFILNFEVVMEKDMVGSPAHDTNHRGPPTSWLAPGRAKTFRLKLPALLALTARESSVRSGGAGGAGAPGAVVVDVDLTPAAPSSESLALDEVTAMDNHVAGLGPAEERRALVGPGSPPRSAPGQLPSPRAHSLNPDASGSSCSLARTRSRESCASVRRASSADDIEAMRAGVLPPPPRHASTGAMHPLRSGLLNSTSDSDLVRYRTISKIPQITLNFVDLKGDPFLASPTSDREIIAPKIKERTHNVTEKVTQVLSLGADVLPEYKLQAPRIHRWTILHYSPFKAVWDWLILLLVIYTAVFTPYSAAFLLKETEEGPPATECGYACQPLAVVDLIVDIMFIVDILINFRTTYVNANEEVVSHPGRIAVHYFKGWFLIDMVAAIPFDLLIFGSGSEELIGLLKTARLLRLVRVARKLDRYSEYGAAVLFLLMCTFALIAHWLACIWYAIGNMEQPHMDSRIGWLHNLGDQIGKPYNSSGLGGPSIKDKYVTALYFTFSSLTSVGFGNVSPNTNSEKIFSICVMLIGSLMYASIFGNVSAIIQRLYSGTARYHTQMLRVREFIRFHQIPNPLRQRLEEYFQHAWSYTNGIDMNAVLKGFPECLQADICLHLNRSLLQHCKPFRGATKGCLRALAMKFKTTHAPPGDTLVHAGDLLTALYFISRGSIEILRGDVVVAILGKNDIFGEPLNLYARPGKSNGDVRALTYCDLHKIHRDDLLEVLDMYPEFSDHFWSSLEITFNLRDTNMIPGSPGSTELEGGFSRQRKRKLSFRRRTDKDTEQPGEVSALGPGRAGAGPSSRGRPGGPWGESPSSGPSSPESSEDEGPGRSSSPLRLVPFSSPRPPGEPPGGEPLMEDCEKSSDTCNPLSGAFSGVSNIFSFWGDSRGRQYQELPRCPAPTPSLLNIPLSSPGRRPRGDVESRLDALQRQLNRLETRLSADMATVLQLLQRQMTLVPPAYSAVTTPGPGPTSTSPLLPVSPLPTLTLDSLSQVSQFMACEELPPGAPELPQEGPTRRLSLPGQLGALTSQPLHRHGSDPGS

As to `Cn1cc(NC(=O)c2cccc(-c3ccnc(NCC4CC4)c3)n2)c(C(=O)NCc2ccncc2)n1`, in data set [1], the IC50 (usually the concentration needed to halve the response being measured) was more than 5000 nM.

Consider `Cn1cc(NC(=O)c2cccc(-c3ccnc(N)c3)n2)c(C(N)=O)n1`, for which the clearance (commonly the volume of plasma or blood freed of the substance per unit of time) was 69 mL/min/kg in data set [2] and 24 mL/min/kg in data set [7]. Also, the values for the IC50 in data set [3] and in data set [4] were 259 nM and 25000 nM, respectively. Besides, the apparent permeability (Papp) (usually a coefficient for how fast a substance crosses the barrier) in data set [5] is 23 ×10⁻⁶ cm/s. Besides, in data set [6], the Ratio IC50 is less than 3.

Consider `Cn1cc(NC(=O)c2cccc(-c3ccccc3)n2)c(C(N)=O)n1`, for which, in [1], the IC50 amounted to 3650 nM.

In the case of `CN(C)[C@H]1CN(C(=O)c2nn(C)cc2NC(=O)c2cccc(-c3ccnc(NCC4CC4)c3)n2)C[C@@H]1O`, the IC50 in data set [3] is 533 nM; in data set [4] it was more than 60000 nM. Further, the apparent permeability coefficient (Papp) in data set [5] is 11 ×10⁻⁶ cm/s. In data set [6], the Ratio IC50 is less than 3. The clearance in [7] was 37 mL/min/kg.

`Cn1cc(NC(=O)c2cccc(-c3ccnc(NCC4CC4)c3)c2)c(C(N)=O)n1`: the figures for the IC50 in [3], in [4] and in data set [1] were 428 nM, 6100 nM and 187 nM, respectively. Besides, the figures for the clearance in [8] and in [7] were 32 mL/min/kg and 25 mL/min/kg, respectively. Besides, the Ratio IC50 in [6] is less than 3.

In the case of `CN1CCCC(CNC(=O)c2nn(C)cc2NC(=O)c2cccc(-c3ccnc(NCC4CC4)c3)n2)C1` (stereo not given), the half-maximal inhibitory concentration (IC50) in data set [4] is 12000 nM. Besides, the clearance in data set [7] is 21 mL/min/kg.

As to `Cn1cc(NC(=O)c2cccc(-c3ccnc(NCC4CC4)c3)n2)c(C(=O)NC2CCCC2)n1`, the IC50 in data set [1] is more than 5000 nM.

On to `Cn1cc(NC(=O)c2cccc(-c3ccnc(NCC4CC4)c3)n2)c(C(N)=O)n1`, for which the clearance is 33 mL/min/kg in [2] and 17 mL/min/kg in data set [7]. Moreover, the half-maximal inhibitory concentration (IC50) stood at 169 nM in data set [3] and 2900 nM in data set [4]. Also, the “inhibition (INH)” value in data set [9] is given as “Not Active”. In addition, the Selectivity ratio in data set [10] and in [11] was less than 10 throughout. For the same compound, the efflux ratio (commonly a quotient of directional permeabilities that is used to spot active efflux) in data set [12] was found to be 0.3. The Activity result in [13] is “Not Active”. Further, the apparent permeability coefficient (Papp) in data set [5] came to 18 ×10⁻⁶ cm/s. Moreover, the Ratio IC50 in data set [6] was less than 3.

For the compound `Cn1cc(NC(=O)c2cnn3ccc(N4CCNCC4)nc23)c(C(N)=O)n1`, the IC50 in [3] is 150 nM; in data set [4], more than 60000 nM; in [1], 38 nM. Besides, the “inhibition (INH)” value in data set [9] is “Not Active”. The Selectivity ratio in data set [10] and in data set [11] was less than 10 in each case. In [12], the efflux ratio is 1. Further, in data set [13], the Activity result was “Not Active”. Besides, the clearance in data set [14] was determined as 39 mL/min/kg; in data set [7], 3 mL/min/kg. For the same compound, the Papp in data set [5] amounted to 1.6 ×10⁻⁶ cm/s. Moreover, in data set [6], the Ratio IC50 was less than 3.

Take `Cn1cc(NC(=O)c2cccc(-c3ccnc(NCC4CC4)c3)n2)c(C(=O)N2CC(CN)C2)n1`: the IC50 in [3] stood at 477 nM; in [4], 40000 nM. The Ratio IC50 in data set [6] was less than 3. Moreover, in [7], the clearance came to 6 mL/min/kg.

As to `Cn1cc(NC(=O)c2cc(-c3ccnc(NCC4CC4)c3)ccn2)c(C(N)=O)n1`, the half-maximal inhibitory concentration (IC50) in [1] is more than 5000 nM.

On to `Cn1cc(NC(=O)c2cccc(-c3ccsc3)n2)c(C(N)=O)n1`, for which, in data set [1], the IC50 worked out at 401 nM.

As to `Cn1cc(NC(=O)c2ccnc(-c3ccnc(NCC4CC4)c3)n2)c(C(N)=O)n1`, the half-maximal inhibitory concentration (IC50) in [4] came out at 1900 nM. The same compound registered a clearance in data set [7] of 43 mL/min/kg.

`Cn1cc(NC(=O)c2cccc(-c3ccnc(NCC4CC4)c3)n2)c(C(=O)NCc2ncc[nH]2)n1`: the 50% inhibitory concentration (IC50) in data set [1] stood at 1610 nM.

On to `Cn1cc(NC(=O)c2cccc(-c3cnccc3Cl)n2)c(C(N)=O)n1`, for which, in data set [1], the IC50 was 683 nM.

`Cn1cc(NC(=O)c2cncc(-c3ccnc(NCC4CC4)c3)c2)c(C(N)=O)n1` registered an IC50 in data set [4] of 5200 nM. The clearance came to 31 mL/min/kg in data set [8] and 53 mL/min/kg in data set [7].

Regarding `Cn1cc(NC(=O)c2cccc(-c3ccc(C4CC4)nc3)n2)c(C(N)=O)n1`, the values for the IC50 in data set [3], in data set [4] and in [1] were 307 nM, more than 60000 nM and 121 nM, respectively. In addition, the Ratio IC50 in data set [6] was less than 3. Besides, the clearance in data set [7] was determined as 30 mL/min/kg.

On to `CC(C)CNC(=O)c1nn(C)cc1NC(=O)c1cccc(-c2ccnc(NCC3CC3)c2)n1`, for which the half-inhibitory concentration (IC50) in data set [1] was more than 5000 nM.

In the case of `CN(C)CCCNC(=O)c1nn(C)cc1NC(=O)c1cccc(-c2ccnc(NCC3CC3)c2)n1`, the IC50 in data set [1] came out at 542 nM.

For the compound `Cn1cc(NC(=O)c2cccc(-c3ccnc(NCC4CC4)c3)n2)c(C(=O)NCc2ccccc2)n1`, the concentration for half-maximal inhibition (IC50) in data set [1] is more than 5000 nM.

In the case of `Cn1cc(NC(=O)c2cccc(-c3ccnc(NCC4CC4)c3)n2)c(C(=O)N2CCC(O)C2)n1` (stereo not given), the IC50 in data set [1] is more than 5000 nM.

On to `Cn1cc(NC(=O)c2cccc(-c3cccnc3)n2)c(C(N)=O)n1`, for which, in [7], the clearance came to 54 mL/min/kg.

Take `Cn1cc(-c2cccc(C(=O)Nc3cn(C)nc3C(N)=O)n2)cn1`: the IC50 in [3] was 138 nM; in [4], more than 60000 nM; in data set [1], 36 nM. Also, the “inhibition (INH)” value in data set [9] is “Not Active”. The Selectivity ratio in [10] and in data set [11] was less than 10 each time. Further, the efflux ratio in [12] came to 0.5. Besides, the Activity result in [13] is “Not Active”. The clearance in data set [14] and in data set [7] was 53 mL/min/kg each time. Moreover, in data set [5], the apparent permeability coefficient (Papp) amounted to 29 ×10⁻⁶ cm/s. For the same compound, the Ratio IC50 in data set [6] is less than 3.

Take `Cn1cc(NC(=O)c2cccc(-c3cncc(Cl)c3)n2)c(C(N)=O)n1`: the concentration for half-maximal inhibition (IC50) is 202 nM in data set [3] and 106 nM in [1]. In addition, the Ratio IC50 in data set [6] was less than 3.

`Cn1cc(NC(=O)c2cccc(-c3ccnc(NCC(F)(F)F)c3)n2)c(C(N)=O)n1`: the half-inhibitory concentration (IC50) in data set [3] worked out at 294 nM. In addition, the Ratio IC50 in [6] is less than 3.
